# Laboratory results published in article PMC6848746 (Psychopharmacology, 2019).
# Where two headings read alike, the source gives them in different places.
# What was measured:
# [1] = molecular target: 5-HT2B (Homo sapiens, UniProt P41595); experiment: Radioligand binding
# [2] = molecular target: T1, NET (Homo sapiens, UniProt P23975); experiment: Radioligand binding
# [3] = tested on: 5-HT receptors; experiment: Primary binding assay at 10 μM, 5-HT receptors; set-up: species or system Human
# [4] = molecular target: DAT (Homo sapiens, UniProt Q01959); details: HEK cells expressing cloned transporters, cited from earlier work; for release of preloaded [3H]DA: at 100 μM, ref Simmler et al. 2014b, Luethi et al. 2017
# [5] = molecular target: T1, NET; details: HEK cells expressing cloned transporters, cited from earlier work; for release of preloaded [3H]NE: at 100 μM, ref Simmler et al. 2014b, Luethi et al. 2017
# [6] = molecular target: SERT (Homo sapiens, UniProt P31645); details: HEK cells expressing cloned transporters, cited from earlier work; for release of preloaded [3H]5-HT: at 100 μM, ref Simmler et al. 2014b, Luethi et al. 2017
# [7] = tested on: DAT; details: synaptosomal uptake assay; ref Johnson et al. (1991a); cited from earlier work
# [8] = tested on: rats; details: cited from earlier work
# [9] = tested on: NET; experiment: NET-mediated release of [3H]MPP+ from rat brain synaptosomes; assay type: biochemical; details: relative to SERT, synaptosomal release
# [10] = tested on: NET; details: synaptosomal uptake assay; ref Johnson et al. (1991a); cited from earlier work
# SERT, sequence (P31645 whole entry): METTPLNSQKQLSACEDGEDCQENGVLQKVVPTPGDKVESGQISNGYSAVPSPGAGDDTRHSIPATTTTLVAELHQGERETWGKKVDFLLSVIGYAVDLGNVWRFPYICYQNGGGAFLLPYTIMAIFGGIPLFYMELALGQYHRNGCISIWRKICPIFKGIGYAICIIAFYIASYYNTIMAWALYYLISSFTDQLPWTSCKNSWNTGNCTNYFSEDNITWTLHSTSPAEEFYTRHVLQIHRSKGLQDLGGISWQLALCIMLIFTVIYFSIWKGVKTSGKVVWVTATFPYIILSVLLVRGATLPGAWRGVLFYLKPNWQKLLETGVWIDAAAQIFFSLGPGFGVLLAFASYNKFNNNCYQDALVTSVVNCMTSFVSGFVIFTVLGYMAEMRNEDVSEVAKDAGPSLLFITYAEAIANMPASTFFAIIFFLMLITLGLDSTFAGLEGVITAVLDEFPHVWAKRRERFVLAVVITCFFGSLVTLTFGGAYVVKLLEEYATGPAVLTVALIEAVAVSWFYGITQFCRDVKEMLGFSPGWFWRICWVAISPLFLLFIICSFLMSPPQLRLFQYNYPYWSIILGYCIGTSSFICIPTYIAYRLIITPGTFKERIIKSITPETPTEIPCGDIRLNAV
# DAT (Homo sapiens, UniProt Q01959), sequence (Q01959 whole entry): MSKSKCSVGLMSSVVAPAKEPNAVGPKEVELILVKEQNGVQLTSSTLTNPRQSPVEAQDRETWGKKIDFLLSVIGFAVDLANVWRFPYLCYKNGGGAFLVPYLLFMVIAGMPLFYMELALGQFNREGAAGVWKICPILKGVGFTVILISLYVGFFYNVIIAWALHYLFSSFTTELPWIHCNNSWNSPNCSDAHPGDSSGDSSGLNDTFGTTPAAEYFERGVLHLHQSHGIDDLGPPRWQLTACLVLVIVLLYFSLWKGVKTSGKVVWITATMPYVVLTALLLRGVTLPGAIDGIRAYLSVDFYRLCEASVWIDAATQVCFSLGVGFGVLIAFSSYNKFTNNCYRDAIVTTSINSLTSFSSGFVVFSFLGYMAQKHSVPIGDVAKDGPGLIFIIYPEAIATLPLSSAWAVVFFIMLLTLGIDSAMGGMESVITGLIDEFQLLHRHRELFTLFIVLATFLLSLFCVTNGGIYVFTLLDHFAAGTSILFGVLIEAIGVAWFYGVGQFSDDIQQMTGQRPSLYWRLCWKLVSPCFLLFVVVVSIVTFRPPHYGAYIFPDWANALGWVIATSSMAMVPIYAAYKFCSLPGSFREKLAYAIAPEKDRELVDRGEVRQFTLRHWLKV
# 5-HT2B, sequence (P41595 whole entry): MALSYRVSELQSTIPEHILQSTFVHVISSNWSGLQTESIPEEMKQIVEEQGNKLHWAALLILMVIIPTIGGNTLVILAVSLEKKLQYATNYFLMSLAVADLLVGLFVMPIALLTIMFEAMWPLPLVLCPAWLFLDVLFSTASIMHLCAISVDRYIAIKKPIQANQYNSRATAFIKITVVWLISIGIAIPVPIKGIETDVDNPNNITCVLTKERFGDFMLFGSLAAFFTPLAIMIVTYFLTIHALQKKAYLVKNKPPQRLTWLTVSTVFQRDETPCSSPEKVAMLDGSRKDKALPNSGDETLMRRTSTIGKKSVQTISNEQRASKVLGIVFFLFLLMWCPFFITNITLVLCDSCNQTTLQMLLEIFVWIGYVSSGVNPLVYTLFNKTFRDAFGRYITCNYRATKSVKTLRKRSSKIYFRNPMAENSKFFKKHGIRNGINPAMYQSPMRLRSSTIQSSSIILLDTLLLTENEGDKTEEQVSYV
# T1 sequence (P23975 whole entry): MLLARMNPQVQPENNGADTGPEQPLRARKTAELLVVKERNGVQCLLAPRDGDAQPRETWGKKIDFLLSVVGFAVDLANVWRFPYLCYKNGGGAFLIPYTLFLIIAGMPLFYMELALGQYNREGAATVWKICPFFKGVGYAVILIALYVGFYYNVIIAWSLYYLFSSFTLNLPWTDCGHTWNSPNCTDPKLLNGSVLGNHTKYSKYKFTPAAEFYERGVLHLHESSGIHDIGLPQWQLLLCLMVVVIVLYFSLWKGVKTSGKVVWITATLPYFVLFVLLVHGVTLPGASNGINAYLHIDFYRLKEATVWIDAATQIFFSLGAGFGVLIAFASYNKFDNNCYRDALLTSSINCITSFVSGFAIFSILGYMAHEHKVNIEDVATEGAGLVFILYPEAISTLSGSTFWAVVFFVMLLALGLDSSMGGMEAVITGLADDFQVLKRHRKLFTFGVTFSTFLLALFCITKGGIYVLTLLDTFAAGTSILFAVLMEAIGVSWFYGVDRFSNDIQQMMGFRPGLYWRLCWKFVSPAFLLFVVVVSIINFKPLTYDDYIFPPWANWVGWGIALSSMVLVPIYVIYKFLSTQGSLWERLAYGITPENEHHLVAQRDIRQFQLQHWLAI
Compound,Ki [1] [µM],"displacement at 5-HT2B receptor ([1]; at 10 μM, primary binding assay) [%]",Ki [2] [µM],displacement at 5-HT receptors [3] [%],release of preloaded [3H]DA [4],"EC50 ([4]; read-out: release of preloaded [3H]DA EC50, ref Eshleman et al. 2017) [µM]",release of preloaded [3H]NE [5],"EC50 ([5]; read-out: release of preloaded [3H]NE EC50, ref Eshleman et al. 2017) [µM]",selectivity for 5-HT vs. DA release ([6]; ref Eshleman et al. 2017),release of preloaded [3H]5-HT [6],"EC50 ([6]; read-out: release of preloaded [3H]5-HT EC50, ref Eshleman et al. 2017) [µM]",fold difference [3H]5-HT uptake IC50 vs [3H]DA uptake IC50 [7] [fold],place conditioning effect ([8]; ref Gatch et al. 2016),fold lower release potency at NET [9] [fold],fold difference [3H]5-HT uptake IC50 vs [3H]NE uptake IC50 [10] [fold],place conditioning effect ([8]; ref Marona-Lewicka et al. 1996)
"NC1Cc2cc3c(cc2C1)OCO3 [MDAI, 5,6-methylenedioxy-2-aminoindan]",> 10,< 50,> 10,< 50,not affected,24,released,0.57,~ 10 fold,released,2.9,10,conditioned place preference,,,
"COc1cc2c(cc1C)CC(N)C2 (stereo not shown) [MMAI, 5-methoxy-6-methyl-2-aminoindan]",0.902 ± 0.445,,> 10,,,,,,,released,,93,,100,55,conditioned place aversion
"NC1Cc2ccccc2C1 [2-AI, 2-aminoindan]",> 10,,> 10,< 50,induced the release,,induced the release,,,,,,,,,
"COc1ccc2c(c1)CC(N)C2 (stereo not shown) [5-MeO-AI, 5-methoxy-2-aminoindan]",4.79,,> 10,,,,,,,,,,,6,,
